# Experiments:
# winter wheat [1] = assay: Normalised plant growth of winter wheat at another site (Example 1, FIG. 2); assay type: in vivo; conditions: pre-em
# Procedure: Similar experiments were carried out at another site where the effect of seed depth was to be determined, see Example 3 below. Control experiments were conducted with the conventional herbicides Trooper and Xerton, as defined above.
# winter wheat [2] = assay: Normalised plant count of winter wheat, field trials (Example 1, FIG. 1); assay type: in vivo; conditions: average of 6 field trials
# Procedure: A herbicide composition consisting of an SC of 450 g/L napropamide-m was applied to winter wheat either pre- or post-emergence. The normalised plant count was determined as a percentage of the plant count observed in the absence of the herbicide. Control experiments were conducted with the conventional herbicide Trooper, as defined above.
# Results from an average of 6 field trials (napropamide; Trooper low dose: 4 sites; Trooper high dose: 2 sites) with herbicide application in October are shown in FIG. 1. […] Plant survival after emergence was 100% of the survival rate in the absence of napropamide.
structure (smiles),measurement,setting,value
"CCN(CC)C(=O)C(C)Oc1cccc2ccccc12 (stereo not drawn) [napropamide, N,N-diethyl-2-(α-naphthoxy) propionamide]",Plant survival after emergence,winter wheat [1],comparable with that following application of conventional herbicides Trooper/Malibu and Xerton
same,effect on the growth of winter wheat,winter wheat [1],very low effect
same,Plant survival after emergence,winter wheat [2]; % of the survival rate in the absence of napropamide,100%
same,effect on the growth of winter wheat,winter wheat [2]; herbicide application in October,no detectable effect

# Source: patent publication US20220071205A1, “HERBICIDE” (UPL LTD, priority 2018, published 2022)
